Laboratory results published in US8067473B2, “Methods for enhancing the therapeutic efficacy of topoisomerase inhibitors” (Teva Pharmaceutical Industries, Ltd., priority 2007, dated 2011).

Experiments:
Type in all cases: cell-based
[1] = molecular target: T1, Ring1-Bmi1 (Homo sapiens, UniProt P35226+Q06587); assay: Ring1-Bmi1 ubiquitination activity in HeLa cells (Flag-Bmi1 immunoprecipitation, anti-HA immunoblot); conditions: 100 μM compound 1, 6 hours
T1 construct: expressed in transfected cells; host or cells: HeLa
T1 sequence (Q06587 1-406): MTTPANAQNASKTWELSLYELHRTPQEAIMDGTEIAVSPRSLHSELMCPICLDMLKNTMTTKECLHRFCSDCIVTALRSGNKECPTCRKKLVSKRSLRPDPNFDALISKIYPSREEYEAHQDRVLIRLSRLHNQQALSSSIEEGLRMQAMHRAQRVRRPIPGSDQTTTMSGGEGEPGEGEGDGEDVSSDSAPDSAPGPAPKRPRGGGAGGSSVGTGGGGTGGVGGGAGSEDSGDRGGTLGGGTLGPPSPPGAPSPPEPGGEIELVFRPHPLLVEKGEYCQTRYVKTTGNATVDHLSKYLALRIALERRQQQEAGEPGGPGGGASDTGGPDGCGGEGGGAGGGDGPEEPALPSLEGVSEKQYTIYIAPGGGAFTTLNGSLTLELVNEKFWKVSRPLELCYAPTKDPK
T1 sequence (P35226 1-326): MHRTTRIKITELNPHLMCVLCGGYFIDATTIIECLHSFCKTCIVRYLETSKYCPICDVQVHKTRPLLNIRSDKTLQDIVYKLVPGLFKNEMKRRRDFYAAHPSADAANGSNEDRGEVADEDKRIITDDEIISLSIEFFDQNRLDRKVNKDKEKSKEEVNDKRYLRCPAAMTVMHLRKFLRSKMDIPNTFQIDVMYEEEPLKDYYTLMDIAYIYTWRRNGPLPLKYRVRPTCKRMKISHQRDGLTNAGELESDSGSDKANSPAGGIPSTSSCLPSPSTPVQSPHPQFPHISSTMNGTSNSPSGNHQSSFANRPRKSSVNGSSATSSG
Protocol: HeLa cells were cultured with DMEM and 10% FBS. The cells were transfected with a plasmid encoding HA-ubiquitin, Bmi1-Flag and RING1A unless otherwise is indicated using Lipofectamine-2000 transfection reagent ((Invitrogen, CA, U.S.A.).
Twenty-four hours post-transfection the cells were treated for 6 hours with solvent (50% DMSO, 50% PEG400) or 100 μM compound 1 (FIG. 12).
The cells were harvested; Flag-Bmi1 was immunoprecipitated with anti-Flag antibodies (Sigma Israel). The amount of ubiquitinated Bmi1 was assayed by immunoblot with anti-HA antibodies (Roche, Germany).

[2] = test system: A549 cells; assay: Viability of A549 cells treated with compound 1 with TOPII drug VM26 or non-TOPII drug Taxol (WST-1)
Protocol: A549 cells were cultured with DMEM and 10% FBS. The cells were treated with different concentrations of compound 1 with or without TOPII drug, VM26 (FIG. 10A) or non TOPII drug, Taxol® (paclitaxel) (Sigma, Israel) (FIG. 10B).

[3] = test system: A549, HeLa, MDA-MB-231, MDA-MB-468, HCT116 and Panc02.03 cells; assay: LD50 of compound 1 in various cancer cells (WST-1); conditions: various types of cancer cells, 72 hours post treatment, WST-1, Prism
Protocol: A549 cells (lung cancer) and HeLa cells ([…]) were cultured with DMEM and 10% FBS (FIG. 13A). MDA-MB-231 and MDA-MB-468 cells (breast cancer), HCT116 cells (colon cancer) and Panc02.03 cells (Pancreatic cancer) were cultured with RPMI and 10% FBS (FIG. 13B). The cells were treated with different concentrations of compound 1. Viability of the cells was tested seventy-two hours post treatment using WST-1 reagent (Roche, Germany). The LD50s were calculated using Prism software (Graphpad, Calif., U.S.A.).

[4] = test system: TOPIIα; assay: Inhibition of VM26-induced TOPIIα degradation by compound 1 in HeLa cells (immunoblot); conditions: 50 μM or 100 μM compound 1 for 1 hr, then 100 μM VM26
Protocol: HeLA cells were cultured with DMEM and 10% FBS. The cells were treated for 1 hr with solvent (50% DMSO, 50% PEG400) or 50 μM or 100 μM of compound 1, then for the indicated time with 100 μM of VM26.
Then the cells were harvested, alkaline extracted and treated with S7 DNAse (Roche, Germany) to release TOPII from the DNA. The amount of TOPIIα was assayed by immunoblot with specific antibodies (Santa-Cruz).

O=C1C(=Cc2cccnc2)C(=O)c2ccccc21 [compound 1] was tested, and the Ring1-Bmi-1 ubiquitination activity [1] was “significant inhibition”, the “synergistic effect with Taxol (non-TOPII drug)” value ([2]; A549 cells, compound 1 with Taxol (paclitaxel), 72 hours post treatment) was “no synergistic effect” and the “increase of the potency of VM26” value ([2]; A549 cells, compound 1 with VM26, 72 hours post treatment, WST-1) was 10 fold. For the same compound, the “synergistic effect with VM26 to reduce viability” value ([2]; A549 lung cancer cells) was “synergistic effect”, the LD50 [3] was 9 to 79 µM and the “drug induced degradation of TOPIIα” value [4] was “inhibits”.
